# Literature values, collected in US20130184354A1, “Silicone and Hylauronic Acid (HLA) Delivery Systems for Products by Sustainable Processes for Medical Uses Including Wound Management” (priority 2012, published 2013).
# Columns and labels:
# [1] = biological target: CB2 receptors (Homo sapiens, UniProt P34972)
# [2] = compared with THC
# CB2 receptors, sequence (P34972 whole entry): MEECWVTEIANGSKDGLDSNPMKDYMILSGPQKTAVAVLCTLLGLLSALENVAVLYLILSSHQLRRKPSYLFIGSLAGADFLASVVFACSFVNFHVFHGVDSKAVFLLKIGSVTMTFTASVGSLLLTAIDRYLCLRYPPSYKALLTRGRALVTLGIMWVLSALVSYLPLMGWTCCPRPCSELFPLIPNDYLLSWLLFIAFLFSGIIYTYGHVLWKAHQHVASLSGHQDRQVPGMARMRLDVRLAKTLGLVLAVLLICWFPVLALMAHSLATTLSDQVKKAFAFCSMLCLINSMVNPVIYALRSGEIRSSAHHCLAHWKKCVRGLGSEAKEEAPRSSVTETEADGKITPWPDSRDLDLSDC
SMILES,affinity for CB2 receptors [1],potency relative to THC [2]
C=C(C)[C@@H]1CCC(C)=C[C@H]1c1c(O)cc(CCCCC)cc1O [Cannabidiol],no affinity,–
CCCCCCC(C)(C)c1cc(O)c2c(c1)OC(C)(C)[C@@H]1CC=C(CO)C[C@@H]21 [HU-210],–,about 100 times
